From patent US10159640B2, “Prebiotic oral care compositions containing amino acids” (COLGATE-PALMOLIVE COMPANY, priority 2013, dated 2018)

Columns and labels:
Format in all cases: cell-based
[1] = system: beneficial oral bacteria and pathogenic oral bacteria; test: Metabolic activity, whole panel: prebiotic effect; conditions: 48 hrs; threshold value of 2
In short: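 Biolog phenotype microarrays with dipeptide-preloaded wells; each species suspended in IF-0 with Redox Dye Mix D (85% transmittance) plus succinate/ferric citrate, incubated anaerobically at 37° C. Tetrazolium reduction read at 492 nm at 24 and 48 h versus no-dipeptide controls; values are means of three biological replicates.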

Porphyromonas gingivalis = test: Metabolic activity, Biolog phenotype microarray; conditions: control without dipeptide = 1
In short: (§1)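 Each species, grown 48 h anaerobically on blood agar, was suspended in IF-0 fluid with tetrazolium Redox Dye D, succinate and ferric citrate, then dispensed onto dipeptide-preloaded plates. Incubated anaerobically at 37° C; OD 492 nm read at 24 and 48 h versus no-dipeptide controls; mean of three biological replicates.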

Veillonella parvula = test: Metabolic activity, Biolog phenotype microarray; conditions: control without dipeptide = 1
In short: as §1

Streptococcus gordonii = test: Metabolic activity, Biolog phenotype microarray; conditions: control without dipeptide = 1
In short: as §1

Streptococcus sanguinis = test: Metabolic activity, Biolog phenotype microarray; conditions: control without dipeptide = 1
In short: as §1

[2] = system: Aggregatibacter actinomycetemcomitans; test: Metabolic activity, Biolog phenotype microarray; conditions: control without dipeptide = 1
In short: as §1

Streptococcus sobrinus = test: Metabolic activity, Biolog phenotype microarray; conditions: control without dipeptide = 1
In short: as §1

Capnocytophaga sputigena = test: Metabolic activity, Biolog phenotype microarray; conditions: control without dipeptide = 1
In short: as §1

Tannerella forsythia = test: Metabolic activity, Biolog phenotype microarray; conditions: control without dipeptide = 1
In short: as §1

Fusobacterium nucleatum = test: Metabolic activity, Biolog phenotype microarray; conditions: control without dipeptide = 1
In short: as §1

Actinomyces viscosus = test: Metabolic activity, Biolog phenotype microarray; conditions: control without dipeptide = 1
In short: as §1

Streptococcus mutans = test: Metabolic activity, Biolog phenotype microarray; conditions: control without dipeptide = 1
In short: as §1

Prevotella intermedia = test: Metabolic activity, Biolog phenotype microarray; conditions: control without dipeptide = 1
In short: as §1

Actinomyces naeslundii = test: Metabolic activity, Biolog phenotype microarray; conditions: control without dipeptide = 1
In short: as §1

Streptococcus mitis = test: Metabolic activity, Biolog phenotype microarray; conditions: control without dipeptide = 1
In short: as §1

Streptococcus salivarius = test: Metabolic activity, Biolog phenotype microarray; conditions: control without dipeptide = 1
In short: as §1

## NC(Cc1c[nH]cn1)C(=O)NC(Cc1c[nH]c2ccccc12)C(=O)O (stereo not shown) [His-Trp]
[1]
  prebiotic effects (metabolic activity): exhibited prebiotic effects
Porphyromonas gingivalis; 24 hrs
  metabolic activity: OD 492 nm divided by OD of control: 1.0126
Porphyromonas gingivalis; 48 hrs
  metabolic activity: OD 492 nm divided by OD of control: 1.3518
Veillonella parvula; 24 hrs
  metabolic activity: OD 492 nm divided by OD of control: 1.1364
Veillonella parvula; 48 hrs
  metabolic activity: OD 492 nm divided by OD of control: 1.4269
Streptococcus gordonii; 24 hrs
  metabolic activity: OD 492 nm divided by OD of control: 1.0431
Streptococcus gordonii; 48 hrs
  metabolic activity: OD 492 nm divided by OD of control: 1.1070
Streptococcus sanguinis; 24 hrs
  metabolic activity: OD 492 nm divided by OD of control: 1.0228
Streptococcus sanguinis; 48 hrs
  metabolic activity: OD 492 nm divided by OD of control: 1.0830
[2]; 24 hrs
  metabolic activity: OD 492 nm divided by OD of control: 0.9439
[2]; 48 hrs
  metabolic activity: OD 492 nm divided by OD of control: 0.9818
Streptococcus sobrinus; 24 hrs
  metabolic activity: OD 492 nm divided by OD of control: 1.0811
Streptococcus sobrinus; 48 hrs
  metabolic activity: OD 492 nm divided by OD of control: 1.2074
Capnocytophaga sputigena; 24 hrs
  metabolic activity: OD 492 nm divided by OD of control: 1.3266
Capnocytophaga sputigena; 48 hrs
  metabolic activity: OD 492 nm divided by OD of control: 1.3068
Tannerella forsythia; 24 hrs
  metabolic activity: OD 492 nm divided by OD of control: 0.8973
Tannerella forsythia; 48 hrs
  metabolic activity: OD 492 nm divided by OD of control: 0.9897
Fusobacterium nucleatum; 24 hrs
  metabolic activity: OD 492 nm divided by OD of control: 0.9185
Fusobacterium nucleatum; 48 hrs
  metabolic activity: OD 492 nm divided by OD of control: 0.9774
Actinomyces viscosus; 24 hrs
  metabolic activity: OD 492 nm divided by OD of control: 1.8735
Actinomyces viscosus; 48 hrs
  metabolic activity: OD 492 nm divided by OD of control: 2.2797
Streptococcus mutans; 24 hrs
  metabolic activity: OD 492 nm divided by OD of control: 1.0292
Streptococcus mutans; 48 hrs
  metabolic activity: OD 492 nm divided by OD of control: 1.5031
Prevotella intermedia; 24 hrs
  metabolic activity: OD 492 nm divided by OD of control: 1.0278
Prevotella intermedia; 48 hrs
  metabolic activity: OD 492 nm divided by OD of control: 1.2057
Actinomyces naeslundii; 24 hrs
  metabolic activity: OD 492 nm divided by OD of control: 1.3153
Actinomyces naeslundii; 48 hrs
  metabolic activity: OD 492 nm divided by OD of control: 1.5439
Streptococcus mitis; 24 hrs
  metabolic activity: OD 492 nm divided by OD of control: 0.9734
Streptococcus mitis; 48 hrs
  metabolic activity: OD 492 nm divided by OD of control: 1.0242
Streptococcus salivarius; 24 hrs
  metabolic activity: OD 492 nm divided by OD of control: 0.9767
Streptococcus salivarius; 48 hrs
  metabolic activity: OD 492 nm divided by OD of control: 1.0689
